Measurements reported in PubChem BioAssay (NCI).
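Cultured in 96-well plates, cells were exposed to test compound for 48 hours across five concentrations. TGI is the concentration that stops growth completely.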

Tests used:
Assay in all cases: inhibition of tumour cell growth, NCI panel, 48 h
A498 renal = tested on: A498 renal
A549 NSCLC = tested on: A549 NSCLC
ACHN renal = tested on: ACHN renal
CCRF-CEM leukemia = tested on: CCRF-CEM leukemia
COLO 205 colon = tested on: COLO 205 colon
DLD-1 colon = tested on: DLD-1 colon
DMS 114 small cell lung = tested on: DMS 114 small cell lung
DMS 273 small cell lung = tested on: DMS 273 small cell lung
EKVX NSCLC = tested on: EKVX NSCLC
HCC-2998 colon = tested on: HCC-2998 colon
HCT-116 colon = tested on: HCT-116 colon
HCT-15 colon = tested on: HCT-15 colon
HL-60(TB) leukemia = tested on: HL-60(TB) leukemia
HOP-18 NSCLC = tested on: HOP-18 NSCLC
HOP-92 NSCLC = tested on: HOP-92 NSCLC
HT29 colon = tested on: HT29 colon
IGROV1 ovarian = tested on: IGROV1 ovarian
K-562 leukemia = tested on: K-562 leukemia
KM12 colon = tested on: KM12 colon
KM20L2 colon = tested on: KM20L2 colon
LOX IMVI melanoma = tested on: LOX IMVI melanoma
LXFL 529 NSCLC = tested on: LXFL 529 NSCLC
MALME-3M melanoma = tested on: MALME-3M melanoma
MOLT-4 leukemia = tested on: MOLT-4 leukemia
NCI-H226 lung = tested on: NCI-H226 lung
NCI-H23 lung = tested on: NCI-H23 lung
NCI-H460 lung = tested on: NCI-H460 lung
OVCAR-8 ovarian = tested on: OVCAR-8 ovarian
RPMI-8226 leukemia = tested on: RPMI-8226 leukemia
RXF 393 renal = tested on: RXF 393 renal
SF-268 CNS = tested on: SF-268 CNS
SF-295 CNS = tested on: SF-295 CNS
SF-539 CNS = tested on: SF-539 CNS
SK-MEL-2 melanoma = tested on: SK-MEL-2 melanoma
SK-MEL-28 melanoma = tested on: SK-MEL-28 melanoma
SK-MEL-5 melanoma = tested on: SK-MEL-5 melanoma
SN12C renal = tested on: SN12C renal
SNB-75 CNS = tested on: SNB-75 CNS
SNB-78 CNS = tested on: SNB-78 CNS
SR leukemia = tested on: SR leukemia
SW-620 colon = tested on: SW-620 colon
TK-10 renal = tested on: TK-10 renal
U251 CNS = tested on: U251 CNS
UACC-257 melanoma = tested on: UACC-257 melanoma
XF 498 CNS = tested on: XF 498 CNS
786-0 renal = tested on: 786-0 renal
CAKI-1 renal = tested on: CAKI-1 renal
HOP-62 NSCLC = tested on: HOP-62 NSCLC
M14 melanoma = tested on: M14 melanoma
NCI-H522 lung = tested on: NCI-H522 lung
OVCAR-3 ovarian = tested on: OVCAR-3 ovarian
OVCAR-4 ovarian = tested on: OVCAR-4 ovarian
OVCAR-5 ovarian = tested on: OVCAR-5 ovarian
SNB-19 CNS = tested on: SNB-19 CNS
UO-31 renal = tested on: UO-31 renal
M19-MEL melanoma = tested on: M19-MEL melanoma
SK-OV-3 ovarian = tested on: SK-OV-3 ovarian
UACC-62 melanoma = tested on: UACC-62 melanoma

## c1ccc2c(c1)CCCC/C2=N/OCC1CO1 (stereo not drawn)
A498 renal
  TGI: > 100 µM
A549 NSCLC
  TGI: > 100 µM
ACHN renal
  TGI: > 100 µM
CCRF-CEM leukemia
  TGI: > 100 µM
COLO 205 colon
  TGI: > 100 µM
DLD-1 colon
  TGI: > 100 µM
DMS 114 small cell lung
  TGI: > 100 µM
DMS 273 small cell lung
  TGI: > 100 µM
EKVX NSCLC
  TGI: > 100 µM
HCC-2998 colon
  TGI: > 100 µM
HCT-116 colon
  TGI: > 100 µM
HCT-15 colon
  TGI: > 100 µM
HL-60(TB) leukemia
  TGI: 44.1 µM
HOP-18 NSCLC
  TGI: > 100 µM
HOP-92 NSCLC
  TGI: 69.2 µM
HT29 colon
  TGI: > 100 µM
IGROV1 ovarian
  TGI: > 100 µM
K-562 leukemia
  TGI: > 100 µM
KM12 colon
  TGI: > 100 µM
KM20L2 colon
  TGI: > 100 µM
LOX IMVI melanoma
  TGI: > 100 µM
LXFL 529 NSCLC
  TGI: > 100 µM
MALME-3M melanoma
  TGI: > 100 µM
MOLT-4 leukemia
  TGI: > 100 µM
NCI-H226 lung
  TGI: 90.9 µM
NCI-H23 lung
  TGI: > 100 µM
NCI-H460 lung
  TGI: > 100 µM
OVCAR-8 ovarian
  TGI: > 100 µM
RPMI-8226 leukemia
  TGI: 72.9 µM
RXF 393 renal
  TGI: > 100 µM
SF-268 CNS
  TGI: > 100 µM
SF-295 CNS
  TGI: > 100 µM
SF-539 CNS
  TGI: > 100 µM
SK-MEL-2 melanoma
  TGI: > 100 µM
SK-MEL-28 melanoma
  TGI: > 100 µM
SK-MEL-5 melanoma
  TGI: > 100 µM
SN12C renal
  TGI: > 100 µM
SNB-75 CNS
  TGI: > 100 µM
SNB-78 CNS
  TGI: > 100 µM
SR leukemia
  TGI: > 100 µM
SW-620 colon
  TGI: > 100 µM
TK-10 renal
  TGI: > 100 µM
U251 CNS
  TGI: > 100 µM
UACC-257 melanoma
  TGI: > 100 µM
XF 498 CNS
  TGI: 77.3 µM

## N#CC(C#N)=c1c2nsnc2c(=C(C#N)C#N)c2nsnc12
786-0 renal
  TGI: 17.9 µM
A549 NSCLC
  TGI: 10.3 µM
ACHN renal
  TGI: 3.23 µM
CAKI-1 renal
  TGI: 3.53 µM
COLO 205 colon
  TGI: 4.83 µM
DLD-1 colon
  TGI: 4.39 µM
DMS 114 small cell lung
  TGI: 3.93 µM
DMS 273 small cell lung
  TGI: 3.24 µM
EKVX NSCLC
  TGI: 14.9 µM
HCC-2998 colon
  TGI: 3.25 µM
HCT-116 colon
  TGI: 3.71 µM
HL-60(TB) leukemia
  TGI: 4.64 µM
HOP-18 NSCLC
  TGI: 5.09 µM
HOP-62 NSCLC
  TGI: 3.59 µM
HOP-92 NSCLC
  TGI: 3.35 µM
HT29 colon
  TGI: 3.2 µM
KM12 colon
  TGI: 3.85 µM
KM20L2 colon
  TGI: 3.26 µM
LOX IMVI melanoma
  TGI: 3 µM
LXFL 529 NSCLC
  TGI: 2.99 µM
M14 melanoma
  TGI: 3.54 µM
MALME-3M melanoma
  TGI: 3.11 µM
NCI-H226 lung
  TGI: 31.9 µM
NCI-H23 lung
  TGI: 3.91 µM
NCI-H460 lung
  TGI: 3.86 µM
NCI-H522 lung
  TGI: 3.51 µM
OVCAR-3 ovarian
  TGI: 8.34 µM
OVCAR-4 ovarian
  TGI: 3.83 µM
OVCAR-5 ovarian
  TGI: 3.3 µM
OVCAR-8 ovarian
  TGI: 3.12 µM
RXF 393 renal
  TGI: 2.61 µM
SF-268 CNS
  TGI: 4.26 µM
SF-295 CNS
  TGI: 3.33 µM
SF-539 CNS
  TGI: 3.46 µM
SK-MEL-2 melanoma
  TGI: 3.53 µM
SK-MEL-28 melanoma
  TGI: 3.3 µM
SNB-19 CNS
  TGI: 4.33 µM
SNB-75 CNS
  TGI: 3.01 µM
SNB-78 CNS
  TGI: 3.28 µM
SW-620 colon
  TGI: 3.05 µM
TK-10 renal
  TGI: 31.3 µM
U251 CNS
  TGI: 3.19 µM
UACC-257 melanoma
  TGI: 3.53 µM
UO-31 renal
  TGI: 3.87 µM

## C=C1C(=O)C23C(O)CC4C5(C)CCCC4(C(O)OC5)C2C(OC(C)=O)CC1C3O (stereo not drawn)
786-0 renal
  TGI: 19.2 µM
A549 NSCLC
  TGI: 51.5 µM
ACHN renal
  TGI: 25.3 µM
CAKI-1 renal
  TGI: 17.8 µM
CCRF-CEM leukemia
  TGI: 10.7 µM
COLO 205 colon
  TGI: 18.9 µM
DLD-1 colon
  TGI: 20.6 µM
DMS 114 small cell lung
  TGI: 22.2 µM
DMS 273 small cell lung
  TGI: 41.3 µM
EKVX NSCLC
  TGI: 27.7 µM
HCC-2998 colon
  TGI: 32.4 µM
HCT-116 colon
  TGI: 18.5 µM
HCT-15 colon
  TGI: 27.4 µM
HOP-18 NSCLC
  TGI: 30.4 µM
HOP-62 NSCLC
  TGI: 32.2 µM
HOP-92 NSCLC
  TGI: 14.6 µM
HT29 colon
  TGI: 17.6 µM
IGROV1 ovarian
  TGI: 39.2 µM
K-562 leukemia
  TGI: 11.7 µM
KM12 colon
  TGI: 22.1 µM
KM20L2 colon
  TGI: 21.2 µM
LOX IMVI melanoma
  TGI: 29.2 µM
LXFL 529 NSCLC
  TGI: 12.2 µM
M14 melanoma
  TGI: 15.1 µM
M19-MEL melanoma
  TGI: 30.7 µM
MALME-3M melanoma
  TGI: 28.8 µM
MOLT-4 leukemia
  TGI: 17 µM
NCI-H226 lung
  TGI: 37.1 µM
NCI-H23 lung
  TGI: 19.3 µM
NCI-H460 lung
  TGI: 15.9 µM
NCI-H522 lung
  TGI: 3.64 µM
OVCAR-3 ovarian
  TGI: 28.2 µM
OVCAR-4 ovarian
  TGI: 27.8 µM
OVCAR-5 ovarian
  TGI: 31.9 µM
OVCAR-8 ovarian
  TGI: 14.1 µM
RPMI-8226 leukemia
  TGI: 17.7 µM
SF-268 CNS
  TGI: 32.4 µM
SF-295 CNS
  TGI: 41.4 µM
SF-539 CNS
  TGI: 25.8 µM
SK-MEL-2 melanoma
  TGI: 30.3 µM
SK-MEL-28 melanoma
  TGI: 22.7 µM
SK-MEL-5 melanoma
  TGI: 31.1 µM
SK-OV-3 ovarian
  TGI: 37.1 µM
SN12C renal
  TGI: 24.3 µM
SNB-19 CNS
  TGI: 28.1 µM
SNB-75 CNS
  TGI: 16.6 µM
SNB-78 CNS
  TGI: 33.9 µM
SR leukemia
  TGI: 18.5 µM
SW-620 colon
  TGI: 10.6 µM
TK-10 renal
  TGI: 23.1 µM
U251 CNS
  TGI: 30.7 µM
UACC-62 melanoma
  TGI: 19.8 µM
UO-31 renal
  TGI: > 100 µM

## CC(C)(C)c1ccc(OC2CCO2)cc1 (stereo not drawn)
786-0 renal
  TGI: 63.3 µM
A498 renal
  TGI: > 100 µM
A549 NSCLC
  TGI: > 100 µM
ACHN renal
  TGI: > 100 µM
CAKI-1 renal
  TGI: > 100 µM
CCRF-CEM leukemia
  TGI: 65 µM
COLO 205 colon
  TGI: 70.5 µM
DMS 114 small cell lung
  TGI: > 100 µM
DMS 273 small cell lung
  TGI: > 100 µM
EKVX NSCLC
  TGI: 90.1 µM
HCC-2998 colon
  TGI: 94.1 µM
HCT-116 colon
  TGI: 41.8 µM
HCT-15 colon
  TGI: 36.9 µM
HOP-18 NSCLC
  TGI: > 100 µM
HOP-62 NSCLC
  TGI: > 100 µM
HOP-92 NSCLC
  TGI: 82 µM
HT29 colon
  TGI: 50.9 µM
IGROV1 ovarian
  TGI: > 100 µM
K-562 leukemia
  TGI: 39.1 µM
KM12 colon
  TGI: 70.2 µM
KM20L2 colon
  TGI: 52.8 µM
LXFL 529 NSCLC
  TGI: > 100 µM
M14 melanoma
  TGI: > 100 µM
M19-MEL melanoma
  TGI: 56.1 µM
MALME-3M melanoma
  TGI: > 100 µM
MOLT-4 leukemia
  TGI: 72.3 µM
NCI-H226 lung
  TGI: 92.8 µM
NCI-H23 lung
  TGI: > 100 µM
NCI-H460 lung
  TGI: 53.3 µM
NCI-H522 lung
  TGI: 52.5 µM
OVCAR-3 ovarian
  TGI: > 100 µM
OVCAR-4 ovarian
  TGI: > 100 µM
OVCAR-5 ovarian
  TGI: 98.7 µM
OVCAR-8 ovarian
  TGI: > 100 µM
RPMI-8226 leukemia
  TGI: 47 µM
SF-268 CNS
  TGI: 81.5 µM
SF-295 CNS
  TGI: > 100 µM
SF-539 CNS
  TGI: 98.6 µM
SK-MEL-28 melanoma
  TGI: > 100 µM
SK-MEL-5 melanoma
  TGI: > 100 µM
SK-OV-3 ovarian
  TGI: > 100 µM
SN12C renal
  TGI: 38.1 µM
SNB-19 CNS
  TGI: > 100 µM
SNB-75 CNS
  TGI: > 100 µM
SNB-78 CNS
  TGI: > 100 µM
SW-620 colon
  TGI: 30.9 µM
TK-10 renal
  TGI: > 100 µM
U251 CNS
  TGI: 35.3 µM
UACC-257 melanoma
  TGI: 87.3 µM
UACC-62 melanoma
  TGI: > 100 µM
UO-31 renal
  TGI: > 100 µM
